{"source": "paper PMC5161541", "about": "(Nuclear medicine and biology, 2016)", "origin": "cited, not measured here", "key": {"σ1 receptors": {"molecular_target": "σ1 receptors (Mus musculus, UniProt O55242)", "sequence (O55242 whole entry)": "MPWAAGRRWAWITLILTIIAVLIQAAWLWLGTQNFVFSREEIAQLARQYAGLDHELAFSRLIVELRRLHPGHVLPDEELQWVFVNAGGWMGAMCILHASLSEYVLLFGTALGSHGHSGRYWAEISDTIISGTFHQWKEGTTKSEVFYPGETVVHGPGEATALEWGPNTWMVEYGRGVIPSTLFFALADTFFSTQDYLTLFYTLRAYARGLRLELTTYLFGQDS", "conditions": "cited from earlier work"}, "σ2 receptors": {"molecular_target": "T1, σ2 receptors (Mus musculus, UniProt Q8VD00)", "T1 sequence (Q8VD00 1-176)": "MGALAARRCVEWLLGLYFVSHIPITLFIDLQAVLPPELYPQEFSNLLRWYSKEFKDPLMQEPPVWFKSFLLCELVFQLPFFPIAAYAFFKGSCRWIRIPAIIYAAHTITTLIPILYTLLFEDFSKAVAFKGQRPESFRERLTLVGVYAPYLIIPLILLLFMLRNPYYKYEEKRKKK", "conditions": "read-out: Sigma-2, Ki; cited from earlier work"}, "[1]": {"system": "(−)-cocaine induced locomotor hyperactivity", "conditions": "cited from earlier work"}}}
{"smiles": "COc1ccc(CCN2CCN(C/C=C/I)CC2)cc1OC", "note": "[E-IA-DM-PE-PIPZE, (E)-1-(2-(2,3-dimethoxy-5-yl)ethyl)-4-(iodoallyl)piperazine]", "values": [{"measurement": "Selectivity: σ2/σ1", "setting": "σ1 receptors", "value": 216}, {"measurement": "Ki", "setting": "σ1 receptors; read-out: Sigma-1, Ki", "value": "0.0067 ± 0.0009", "unit": "µM"}, {"measurement": "Ki", "setting": "σ2 receptors", "value": "1.45 ± 0.22", "unit": "µM"}, {"measurement": "effect on (−)-cocaine induced locomotor hyperactivity", "setting": "[1]", "value": "partially attenuates"}]}
